Reference: patent US12479834B2, “Phenol compound or salt thereof” (TAIHO PHARMACEUTICAL CO., LTD., priority 2019, dated 2025)

Experiments:
KRAS G12C mutant = biological target: T1, KRAS G12C mutant (Homo sapiens, UniProt P01116, G12C); test: Inhibition of SOS1-mediated nucleotide (GDP-GTP) exchange reaction of KRAS G12C mutant, BODIPY FL GDP fluorescence; type: biochemical; details: preincubated 25° C. 4 hours with 25 nM KRAS G12C bound with BODIPY FL GDP; SOS1 100 nM, GppNHp 1 μM, 30 minutes
T1 construct: 50 μM G12C K-Ras4B (1-169) protein and 1 mM BODIPY® FL GDP; His tag (N, cleaved yes); made in house; host or cells: E. coli BL21 (DE3)
Source text: (§1) SOS1 protein was expressed in E. coli strain BL21 (DE3) by synthesizing a nucleotide sequence encoding the amino acid sequence represented by GenPept ID NP_005624 as a sequence optimized for E. coli by use of GeneArt Technology (Life Technologies Corp.) such that the protein was N-terminally His-tagged and fused with a TEV protease recognition sequence (ENLYFQG). The expressed His-tagged SOS1 (564-1049) was purified through a Ni column, then cleaved at its tag with N-terminally His-tagged TEV protease, and passed through a Ni column again to recover a flow-through fraction to obtain the protein.
Each compound was studied for its inhibitory effect on the exchange reaction of GDP into GppNHp in BODIPY® FL bound with the KRAS G12C mutant by fluorescence measurement using the G12C K-Ras4B (1-169) protein and the SOS1 protein.
For the preparation of the KRAS G12C mutant bound with BODIPY® FL GDP, first, 50 μM G12C K-Ras4B (1-169) protein and 1 mM BODIPY® FL GDP (Invitrogen Corp., G22360) were incubated for 1 hour in a buffer solution (20 mM Tris-HCl (pH 7.5), 50 mM NaCl, and 1 mM DTT) in ice in the presence of 2.5 mM EDTA. Then, MgCl2 was added thereto at a final concentration of 10 mM, then the mixture was incubated at room temperature for 30 minutes, and then, the protein was passed through a NAP-5 column for removal of free nucleotides and used for compound evaluation.
For the measurement of the inhibitory activity of compounds against nucleotide exchange reaction, first, the compound of the present invention was serially diluted with DMSO. Subsequently, the serially diluted solution of the compound of the present invention in DMSO (final concentration of DMSO: 5%) and the KRAS G12C mutant (25 nM) bound with BODIPY® FL GDP were added into a reaction buffer solution (20 mM Tris-HCl (pH 7.5), 100 mM NaCl, 1 mM MgCl2, 2 mM DTT, and 0.1% Tween 20), and the mixture was preincubated at 25° C. for 4 hours. Then, Son of Sevenless Homolog 1 (SOS1, amino acid region: 564-1049) and GppNHp (GMPPNP, Jena Bioscience GmbH, NU-401-50) were added thereto at final concentrations of 100 nM and 1 μM, respectively, and the mixture was reacted for 30 minutes. The change in fluorescence intensity of BODIPY® FL (excitation wavelength: 485 nm, fluorescence wavelength: 520 nm) between immediately after the start of reaction and after 30 minutes from the start of reaction was standardized, and then, the compound concentration at which 50% inhibition was achieved was calculated as IC50 (nM) when the signal value for only DMSO was defined as 0% inhibition and the signal value for no addition of GppNHp was defined as 100% inhibition.

G12C K-Ras4B (1-169) = biological target: T2, G12C K-Ras4B (1-169) (Homo sapiens, UniProt P01116, G12C); test: Binding to KRAS G12C mutant, compound binding rate by LC-MS; details: final compound concentration 2 μM, 1 μM protein, 2 hours at 25° C.
T2 construct: G12C K-Ras4B (1-169) protein, which was a KRAS G12C mutant; His tag (N, cleaved yes); made in house; host or cells: E. coli BL21 (DE3)
Source text: as §1, with “K-Ras4B (1-169)” for “SOS1”, “NP_004976” for “NP_005624”, “K-Ras4B (1-169)” for “SOS1 (564-1049)”, “fraction, which was further purified by anion-exchange chromatography” for “fraction”, “protein. G12C K-Ras4B (1-169) protein, which was a KRAS G12C mutant, was obtained in the same way as in the K-Ras4B(1-169) protein except that glycine at position 12 of the amino acid sequence represented by GenPept ID NP_004976 was mutated to cysteine.” for “protein.”
The K-Ras4B (1-169) protein and the G12C K-Ras4B (1-169) protein were mixed and diluted with a buffer solution (1×TBS and 0.1 mM TCEP) to prepare a protein solution containing 1 μM each of the proteins. Each test compound was dissolved at 10 mM in DMSO and further diluted 10-fold with DMSO to make a 1 mM solution. Then, the solution was diluted 5-fold with DMSO to make a 200 μM solution. The 200 μM solution was further diluted 5-fold to make a […] solution. 1 μL of the 40 μM test compound was added to 19 μL of the 1 μM protein solution such that the final compound concentration was 2 μM. The mixture was stored for 2 hours in an incubator of 25° C., and the reaction was terminated by the addition of 80 μL of a 1×TBS solution containing 0.2% formic acid, followed by LC-MS measurement.
The LC-MS measurement was performed by using Xevo G2-S Q-Tof manufactured by Waters Corp., performing reverse-phase chromatography with a desalting column, and obtaining mass spectra of positive ions by electrospray. For the mass spectra, spectra of polyvalent ions were collectively converted to molecular weights by the MaxEnt technique using OpenLynx software, and then, a compound binding rate was obtained from the ratio of […].
The binding rates of test compounds having a final compound concentration of 2 μM for G12C K-Ras4B (1-169) are shown in the table below. The binding rate for G12C K-Ras4B (1-169) is rated “A” for 80% or more, “B” for 60% or more and less than 80%, “C” for 40% or more and less than 60%, “D” for 20% or more and less than 40%, and “E” for less than 20%.

SMILES | IC50 (KRAS G12C mutant) [nM] | binding rate for G12C K-Ras4B (1-169) (G12C K-Ras4B (1-169))
C=CC(=O)N1CC(NC(=O)c2cnc(CNc3cc(S(F)(F)(F)(F)F)ccc3O)n2C)C1 [Example 75, N-(1-Acryloylazetidin-3-yl)-2-(((2-hydroxy-5-(pentafluoro-λ6-sulfaneyl)phenyl)amino)methyl)-1-methyl-1H-imidazole-5-carboxamide] | 661 | E (less than 20%)
C=CC(=O)N1CC(NC(=O)c2cnc(C(C)Nc3cc(C(C)(C)C)c(Cl)c(F)c3O)n2C)C1 (centres unmarked) [Example 82, N-(1-Acryloylazetidin-3-yl)-2-(1-((5-(tert-butyl)-4-chloro-3-fluoro-2-hydroxyphenyl)amino)ethyl)-1-methyl-1H-imidazole-5-carboxamide] | 1040 | B (60% or more and less than 80%)
C=CC(=O)N1CC(NC(=O)c2c(C)nc(Cc3cc(C(C)(C)C)c(F)cc3O)n2C)C1 [Example 94, N-(1-Acryloylazetidin-3-yl)-2-(5-(tert-butyl)-4-fluoro-2-hydroxybenzyl)-1,4-dimethyl-1H-imidazole-5-carboxamide] | 170 | C (40% or more and less than 60%)
C=CC(=O)N1CC(NC(=O)c2c(C)nc(C(O)c3cc(C(C)(C)C)c(F)cc3O)n2C)C1 (centres unmarked) [Example 93, N-(1-Acryloylazetidin-3-yl)-2-((5-(tert-butyl)-4-fluoro-2-hydroxyphenyl) (hydroxy)methyl)-1,4-dimethyl-1H-imidazole-5-carboxamide] | 500 | E (less than 20%)
CN(C)C/C=C/C(=O)N1CC(N(C)C(=O)c2ccc(CNc3cc(C(C)(C)C)c(Cl)cc3O)o2)C1 [Example 87, (E)-5-(((5-(tert-Butyl)-4-chloro-2-hydroxyphenyl)amino)methyl)-N-(1-(4-(dimethylamino)but-2-enoyl)azetidin-3-yl)-N-methylfuran-2-carboxamide] | 193 | A (80% or more)
C=CC(=O)N1CC(NC(=O)c2ccc(CNc3cc(C4CC4)c(Cl)cc3O)o2)C1 [Example 52, N-(1-Acryloylazetidin-3-yl)-5-(((4-chloro-5-cyclopropyl-2-hydroxyphenyl)amino)methyl)furan-2-carboxamide] | 2090 | D (20% or more and less than 40%)
C=CC(=O)N1CC(NC(=O)c2c(C(F)(F)F)nc(CNc3cc(C(C)(C)C)c(C)cc3O)n2C(C)C)C1 [Example 77, N-(1-Acryloylazetidin-3-yl)-2-(((5-(tert-butyl)-2-hydroxy-4-methylphenyl)amino)methyl)-1-isopropyl-4-(trifluoromethyl)-1H-imidazole-5-carboxamide] | 240 | D (20% or more and less than 40%)

Second part, the compound after the results:

IC50 (KRAS G12C mutant) [nM] | binding rate for G12C K-Ras4B (1-169) (G12C K-Ras4B (1-169)) | SMILES
753 | B (60% or more and less than 80%) | C=CC(=O)N1CC(NC(=O)c2ccc(CNc3cc(C(C)(C)C)c(Cl)cc3O)cc2)C1 [Example 3, N-(1-Acryloylazetidin-3-yl)-4-(((5-(tert-butyl)-4-chloro-2-hydroxyphenyl)amino)methyl)benzamide]
701 | E (less than 20%) | C=CC(=O)N1CC(NC(=O)c2cnc(CNc3cc(C(C)(C)C)cc(C)c3O)n2C)C1 [Example 74, N-(1-Acryloylazetidin-3-yl)-2-(((5-(tert-butyl)-2-hydroxy-3-methylphenyl)amino)methyl)-1-methyl-1H-imidazole-5-carboxamide]
2380 | D (20% or more and less than 40%) | C=CC(=O)N1CC(NC(=O)c2ccc(CNc3cc(C(C)(C)C)c(Cl)cc3O)cc2Cl)C1 [Example 22, N-(1-Acryloylazetidin-3-yl)-4-(((5-(tert-butyl)-4-chloro-2-hydroxyphenyl)amino)methyl)-2-chlorobenzamide]
39 | A (80% or more) | C=CC(=O)N1CC(NC(=O)c2cnc(CNc3cc(C(C)(C)C)c(Cl)cc3O)s2)C1 [Example 9, N-(1-Acryloylazetidin-3-yl)-2-(((5-(tert-butyl)-4-chloro-2-hydroxyphenyl)amino)methyl)thiazole-5-carboxamide]
549 | D (20% or more and less than 40%) | C=CC(=O)N1CC(NC(=O)c2cnc(CCc3cc(C(C)(C)C)c(Cl)cc3O)n2C)C1 [Example 90, N-(1-Acryloylazetidin-3-yl)-2-(5-(tert-butyl)-4-chloro-2-hydroxyphenethyl)-1-methyl-1H-imidazole-5-carboxamide]
67 | A (80% or more) | C=CC(=O)N1CC(NC(=O)c2nc(CNc3cc(C(C)(C)C)c(Cl)cc3O)cs2)C1 [Example 10, N-(1-Acryloylazetidin-3-yl)-4-(((5-(tert-butyl)-4-chloro-2-hydroxyphenyl)amino)methyl)thiazole-2-carboxamide]
3140 | D (20% or more and less than 40%) | C=CC(=O)N1CC(NC(=O)c2ccc(CNc3cc(C(F)(F)F)c(Cl)cc3O)o2)C1 [Example 50, N-(1-Acryloylazetidin-3-yl)-5-(((4-chloro-2-hydroxy-5-(trifluoromethyl)phenyl)amino)methyl)furan-2-carboxamide]
233 | A (80% or more) | C=CC(=O)N1CC(NC(=O)c2nc(CNc3cc(C(C)(C)C)c(Cl)cc3O)cn2C)C1 [Example 19, N-(1-Acryloylazetidin-3-yl)-4-(((5-(tert-butyl)-4-chloro-2-hydroxyphenyl)amino)methyl)-1-methyl-1H-imidazole-2-carboxamide]
4680 | E (less than 20%) | C=CC(=O)N1CC(NC(=O)c2cn(C)c(CNc3cc(C(C)(C)C)c(Cl)cc3O)n2)C1 [Example 25, N-(1-Acryloylazetidin-3-yl)-2-(((5-(tert-butyl)-4-chloro-2-hydroxyphenyl)amino)methyl)-1-methyl-1H-imidazole-4-carboxamide]
